Test results reported in a melting point compilation (Tetko et al.; mined from patent text by program, amines drawn as free bases though some values may be those of a salt).

Row | SMILES | melting point
1 | Cc1oc(-c2ccccc2)nc1CCOc1ccc(I)cn1 | 105 to 106 °C
2 | COC(=O)c1cc(-c2ccc(OC)cc2)nn(CC(=O)Nc2ccc(SC)cc2)c1=O | 130 to 132 °C
3 | COc1ccccc1N1CCN(CCn2c(=O)c3sccc3n(C)c2=O)CC1 | 149 to 151 °C
4 | O=C(O)c1cccc2nc(C(F)(F)C(F)(F)C(F)(F)F)n(Cc3ccccc3Cl)c12 | 213 to 214 °C
5 | Cn1cc(-c2ccc(Cl)cc2)c(=O)c(-c2cccc(Cl)c2)c1 | 170 to 172 °C
6 | Cc1nc2ccc(CCc3ccccc3)cn2c1CC#N | 139 to 141 °C
7 | COc1cc(OC)c2c(=O)cc(-c3ccccc3Cl)oc2c1C1CCN(C)C1C(=O)O (centres undefined) | 165 to 167 °C
8 | CC1(C)CCc2c(-c3ccco3)nc3sc4c(NCCN5CCOCC5)ncnc4c3c2C1 | 123 to 125 °C
9 | COc1ccc2c(=O)n3cccc3oc2c1 | 128 to 129 °C
10 | O=C(O)C1CCc2c(c3cc(F)ccc3n2C(=O)c2ccc(F)cc2)C1 (centres undefined) | 195 to 196 °C
11 | CON(Cc1ccc(F)c(C)c1)C(=O)C1=C(O)C(=O)N(C)C1 | 160 to 164 °C
12 | CCOc1cc(C(F)(F)F)sc1C(=O)OC | 93.6 °C
13 | O=C1C(=CO)Cc2c1cnn2Cc1ccccc1 | 171 to 172 °C
14 | CCCn1nc(C(C)C)c(C(=O)OCc2ccccc2C(=O)c2ccccc2)c1Cc1ccc(-c2ccccc2S(=O)(=O)NC(=O)OCC(C)C)c(F)c1 | 52 to 59 °C
15 | COc1ccccc1-n1c(=O)[nH]c2cccnc21 | 130 °C
16 | CCCCCCCC(=O)N(C)Cc1cc(-c2ccc(C=C3SC(=O)NC3=O)cc2)ccc1OCc1ccccc1 | 158 °C
17 | COc1cccc(SC(CC(=O)c2ccccc2)c2cccc([N+](=O)[O-])c2)c1 (centres undefined) | 105 °C
18 | Cc1cncn1CC#CCN1CCNC1=O | 163 to 167 °C
19 | COCCNc1ccc2ncnc(Nc3cccc(C)c3)c2c1 | 163 to 167 °C
20 | CN1CCc2nc3cc(Cl)ccc3c(-c3cccs3)c2C1 | 131 to 132 °C
21 | COc1cc2c(cc1Nc1ncc(Cl)c(N[C@H]3[C@@H](C(N)=O)[C@@H]4C=C[C@H]3C4)n1)NC(=O)CN(CC1CC1)C2 | 152 °C
22 | COc1cc(OC)nc(NC(=O)NS(=O)(=O)c2nccn2-c2nn(C)cc2Cl)n1 | 164 to 165 °C
23 | CCN(CC)c1c([N+](=O)[O-])cc(C#N)c(N)c1[N+](=O)[O-] | 146 °C
24 | C1=C(c2ccccc2)CC(CN2CCN(c3ccccn3)CC2)C1 (centres undefined) | 100 to 101 °C
25 | N#Cc1cnn(-c2ccc(Cl)cc2Cl)c1C(F)(F)F | 83 to 85 °C
26 | COc1ccccc1-n1c(=O)[nH]c2c(C(N)=O)nc(C3CCCC3)nc21 | 244 to 246 °C
27 | Clc1ccccc1NC(c1ccccc1)c1ccccc1 | 98 °C

Row | SMILES | melting point
28 | CN1C(C)(C)CC(OC(=O)CCc2cc(-n3nc4ccc(S(=O)(=O)c5ccccc5)cc4n3)c(O)c(C(C)(C)C)c2)CC1(C)C | 45 to 52 °C
29 | Cc1cccc2c(=O)[nH]c(N3CCC(N(C)C)CC3)cc12 | 217 to 218 °C
30 | C=CCN1C2CCC3C1CCC2N3C(c1ccc(C(=O)N2CCCC2)cc1)c1cccc(O)c1 (centres undefined) | 140 to 142 °C
31 | C#Cc1c(OC)nc(C)nc1C(F)(F)F | 77 °C
32 | CCCCc1nc(=O)c2ccc(C(=O)OCC)cc2[nH]1 | 145 °C
33 | CCc1cccc(N)c1C(=O)O | 99 to 104 °C
34 | COn1c(C#N)c(Br)c(Br)c1-c1ccc(Cl)c(Cl)c1 | 145 to 150 °C
35 | CCc1c(C(=O)OC)c(C(=O)OC)c2n1-c1ccccc1C2 | 86 to 88 °C
36 | COc1ccc(-c2nc(C3=CCN(C)CC3)sc2-c2ccc(OC)cc2)cc1 | 131 to 132 °C
37 | CC(=O)Oc1ccc(CC(CC(=O)O)N2C(=O)c3ccccc3C2=O)cc1 (centres undefined) | 151 to 154 °C
38 | CCOC(=O)C1=C(C)Nc2nc(N)nc(N)c2C1c1cc(OC)c(OC)c(OC)c1 (centres undefined) | 126 °C
39 | Clc1ccc2scc(Br)c2c1 | 85 to 86 °C
40 | O=c1ccn2nc(-c3ccncc3)c(-c3ccc(F)cc3)c2[nH]1 | 298 to 299 °C
41 | c1ccc2c(c1)CC(CN1CCC(c3c[nH]c4cc5c(cc34)OCO5)CC1)C2 | 187 to 188 °C
42 | COc1cccc(OC)c1C(=O)P(=O)(C(=O)c1c(OC)cccc1OC)c1ccccc1 | 155 °C
43 | CS(=O)(=O)c1ccc(-c2nc(C(F)(F)F)nc(NN)c2-c2ccc(S(=O)(=O)NN)cc2)cc1 | 203 to 206 °C
44 | O=C(Nc1ccc2c(c1)OC=C1CN(C(=O)OCc3ccccc3)C=CN12)OCc1ccccc1 | 118 to 120 °C
45 | CCOC1C(NC(=O)C(F)(F)F)CC(OC(=O)c2ccc([N+](=O)[O-])cc2)OC1C (centres undefined) | 148 to 150 °C
46 | CCC1(O)CC(=O)OCc2c1cc1n(c2=O)Cc2c-1nc1ccccc1c2CCC(C)C (centres undefined) | 263 °C
47 | CCCN1CCCC(c2cccc(O)c2)C1=O (centres undefined) | 61 to 63 °C
48 | CC(=O)OCC1CCCN(C(=O)c2ccc(NC(=O)c3ccccc3C)cc2)c2ccccc21 (centres undefined) | 155 to 156 °C
49 | O=C(O)c1ccccc1CNC(=O)C1Cc2ccccc2N1S(=O)(=O)c1ccc(-c2cccc(C(F)(F)F)c2)cc1 (centres undefined) | 118 °C
50 | CCC(=O)N[C@@H](C)C(=O)N1CCC[C@H]1C(=O)NC1CCCC1 | 172 to 173 °C
51 | N#CC1(C2(O)CCCCC2)Cc2cc3occc3cc21 (centres undefined) | 154 to 158 °C
52 | COC(=O)c1c(-c2cc3ccccc3o2)ccc2ccccc12 | 111 to 112 °C
53 | CC1Nc2ccc(-c3cc(F)cc(C#N)c3)cc2C(C)(C)O1 (centres undefined) | 163 to 164 °C

Now from value to molecule:

Row | melting point | SMILES
54 | 223 to 224 °C | CCCOc1ccc(F)cc1-c1ccc(C(N)=O)c(=O)[nH]1
55 | 141 to 142 °C | COc1ccc(C2OC(=O)c3cc(OC)c(OC)c(OC)c32)cc1OC (centres undefined)
56 | 183 to 184 °C | COc1cc(NC(=S)Nc2ccccc2)ccc1NNC=O
57 | 227 to 228 °C | O=C1c2ccc(O)cc2C(=O)C1c1ccc(O)cc1 (centres undefined)
58 | 298 to 300 °C | CN(C)C=Cc1[nH]c(=O)ccc1C#N
59 | 109 to 113 °C | CN(C)c1ccc(NC(=O)N(Cc2ccccc2)C[C@@H]2CCCC[C@H]2CN(Cc2ccccc2)C(=O)Nc2ccc(N(C)C)cc2)cc1 (relative stereo)
60 | 210 to 212 °C | Cc1ccc2cccc(OCc3c(Cl)ccc(C(=O)NCCN4C(=O)c5ccccc5C4=O)c3Cl)c2n1
61 | 178 °C | CSc1c2n(c3ccccc13)CCC2N(O)C(N)=O (centres undefined)
62 | 100 to 102 °C | CCCCc1c(CO)ccc2c(OC)cccc12
63 | 198 to 199 °C | Cc1cc(C)cc(Sc2c(CO)nc(C)n2C)c1
64 | 167 to 169 °C | Cc1cc(C(=O)C(=O)O)ccc1OCCOc1ccc2ccccc2c1
65 | 235 to 240 °C | CC1(C)C(=NO)C(=NO)C(C)(C)N1C(=O)c1ccccc1
66 | 63 to 65 °C | CN(C)S(=O)(=O)N(C)c1ccc(C(O)(C(F)(F)F)C(F)(F)F)cc1
67 | 229 to 230 °C | N=C(NO)c1ccc(-c2ccc(-c3ccc(C(=N)NO)o3)cc2)cc1
68 | 135 to 138 °C | CN(C)c1noc(-c2cc(C(C)(C)C)c(O)c(C(C)(C)C)c2)n1
69 | 158 to 160 °C | O=C(O)C12CCCC(C1)C1CCC2C1 (centres undefined)
70 | 209 to 210 °C | Cc1c(S(=O)(=O)Nc2ccc(-c3nc(CO)cs3)cc2S(C)(=O)=O)sc2ccc(F)cc12
71 | 97 to 99 °C | COC(=O)CCn1ccc2cc([N+](=O)[O-])ccc21
72 | 158 to 161 °C | CC(C)(C)c1cc(C(C)(C)C)c(O)c(S(=O)(=O)Nc2ccc([N+](=O)[O-])cc2Cl)c1
73 | 138 to 139 °C | CCOC(=O)C(C#N)C(=O)c1ccc[nH]1 (centres undefined)
74 | 114 to 116 °C | CC(C)(C(=O)O)c1cccc(OCc2ccccc2)c1
75 | 241 °C | O=C(Nc1cccc(S(=O)(=O)N2CCCC2)c1)c1cnn2c(C(F)(F)F)cc(-c3ccc(C(F)(F)F)cc3)nc12
76 | 166 to 169 °C | CC1(C)Nc2ccccc2-n2cnc(-c3noc(C4CC4)n3)c21

Row | melting point | SMILES
77 | 156 °C | Clc1ccc(N=Cc2ccc(Cl)c3cc(Cl)cnc23)c(Cl)c1
78 | 76 to 78 °C | OCC1(Cc2ccccc2)CCC2(CC1)OCCO2
79 | 84 to 86 °C | NN=C1CCc2ccccc21
80 | 32 °C | CC(C)c1nc(Cl)c([N+](=O)[O-])c(Cl)n1
81 | 90 to 92 °C | CN(C)S(=O)(=O)c1ccc(Br)cc1
82 | 257 to 258 °C | Cc1cc(Cl)n2nc(S(=O)(=O)Nc3c(Cl)cccc3Cl)nc2c1
83 | 166 to 168 °C | CCC(=O)NC(C)(C(=O)NS(=O)(=O)c1ccc(C)cc1)C(C)C (centres undefined)
84 | 238 to 240 °C | CC(=O)NC[C@H]1CN(c2ccc(-c3nsc(C(N)=O)n3)c(F)c2)C(=O)O1
85 | 76 to 78 °C | CCNc1nc(NCc2ccco2)nc(Nc2ccc(O)cc2)n1
86 | 205 to 207 °C | CC(=O)OCC(=O)Nc1nc2c(Cl)cccc2s1
87 | 141 to 144 °C | CC(COc1ccc(-c2ccc(C#N)cc2)cc1)N(O)C=O (centres undefined)
88 | 228 to 229 °C | CC(=O)NC(Cc1ccccc1)C(=O)Nc1c(C(C)C)cccc1C(C)C (centres undefined)
89 | 100 to 103 °C | O=C(Nc1cccc(-n2ccnc2)c1)c1ccn(-c2ccccc2)c1
90 | 165 °C | N#CC1=C(c2ccccc2)Nc2n[nH]cc2C1c1cccc(F)c1F (centres undefined)
91 | 180 to 183 °C | Cc1nc(Cl)c2ccccc2c1CC(=O)O
92 | 321 °C | Cn1c2ccc(-c3nnn[nH]3)cc2c(=O)c2cccnc21
93 | 148 to 150 °C | CSC1NC(=O)N(Cc2ccccc2)C(=O)N1N=C(C)C (centres undefined)
94 | 168 to 169 °C | COc1ccnc(CSc2nc3c(C)c(OC(F)F)c(C)cc3[nH]2)c1
95 | 253 to 255 °C | Cc1cccc(C(=O)NCc2cccc3c2CN(C2CCC(=O)NC2=O)C3=O)c1 (centres undefined)
96 | 105 to 106 °C | C[C@@H](NS(=O)(=O)c1cccs1)c1cccc(C(=O)c2ccco2)c1
97 | 88 to 89 °C | Clc1cc(Cl)n2nc(SCc3ccccc3)nc2c1
98 | 120 to 123 °C | CCCCc1nc2cccc(C(=O)O)c2n1Cc1ccc(-c2ccccc2-c2nnnn2C(c2ccccc2)(c2ccccc2)c2ccccc2)cc1
99 | 146 to 147 °C | CC(=O)CC(=O)Nc1ccc(N)c([N+](=O)[O-])c1
